In publication PMC5038265 (Antimicrobial Agents and Chemotherapy, 2016):
≈ marks a conversion by molar mass, not a printed value. Where two headings read alike, the source gives them in different places.

What was measured:
SDHA in HepG2 cells = assay: Mitochondrial protein synthesis assay, SDHA level; assay type: cell-based; details: Homo sapiens, 168 h; HepG2, 7 days; read-out: Mean EC50 ± SD SDHA
Description: (§1) The human liver carcinoma-derived HepG2 cell line was obtained from the ATCC (ATCC HB-8065). HepG2 cells were grown in Dulbecco's modified Eagle's medium containing 10% fetal calf serum, 1 mM sodium pyruvate, 0.1 mM essential amino acids, and 50 U/ml penicillin-streptomycin at 37°C with 5% CO2. HepG2 cells were seeded into 96-well plates at 3,000 cells/200 μl/well in cell culture medium. Cells were then grown in the presence of the compounds at 37°C in 10% CO2 for 7 days in at least duplicate concentrations, with the medium and compounds being replaced on the fourth day. After 7 days, the levels of SDHA (subunit A of the succinate dehydrogenase complex) and COX1 (cytochrome c oxidase) were determined by using the MitoSciences In-Cell enzyme-linked immunosorbent assay (ELISA) kit. Janus green staining was used to determined cell viability after 7 days (In-Cell ELISA kit, catalog number MS643).

COX1 in HepG2 cells = assay: Mitochondrial protein synthesis assay, COX1 level; assay type: cell-based; details: Homo sapiens, 168 h; HepG2, 7 days; read-out: Mean EC50 ± SD COX1
Description: as §1

HepG2 cells = assay: HepG2 cell viability (Janus green staining); assay type: cell-based; details: Homo sapiens, 168 h, HepG2, 7 days, read-out: Mean EC50 ± SD Cell viability
Description: as §1

M. tuberculosis LeuRS = M. tuberculosis LeuRS (Mycobacterium tuberculosis, UniProt P9WFV1); assay: biochemical; parameters: species or system M. tuberculosis H37Rv
M. tuberculosis H37Rv [1] = assay: MIC for M. tuberculosis H37Rv (resazurin/alamarBlue); assay type: cell-based, Mycobacterium tuberculosis; details: for MIC: Mycobacterium tuberculosis, H37RV, read-out: MIC M.tb H37Rv
Vero cells = assay: In vitro cytotoxicity assay (MTT); assay type: cell-based, African green monkey; details: Chlorocebus sabaeus, 72 h
Description: Vero epithelial cells (from African green monkey; ATCC CCL-81) were cultured in Dulbecco's modified Eagle's medium (DMEM) supplemented with 10% fetal bovine serum (FBS) and maintained in a humidified incubator (37°C in 5% CO2). Cells were dislodged with a cell scraper, collected by centrifugation, resuspended in fresh medium at ∼10^6 cells/ml, dispensed into 96-well microtiter plates ([…]), and incubated for 18 h at 37°C. Twofold serial dilutions of test compounds in DMEM with FBS were subsequently added, and cells were incubated for another 72 h. In triplicate studies, the cytopathic effects of compounds were evaluated colorimetrically by using the 3-(4,5-dimethyl-2-thiazolyl)-2,5-diphenyl-2H-tetrazolium bromide (MTT) cell proliferation assay (ATCC). IC50 data were obtained from dose-response curves plotted by using GraphPad Prism 5.

in vitro = in vitro ADME; details: mouse plasma, 1 and 10 µg/ml, ultrafiltration; read-out: Mouse PPB (converted)
Description: Compounds were added to 1.5-ml aliquots of mouse plasma at concentrations of 1 and 10 µg/ml and then incubated in a shaking water bath at 37°C for 15 min. Both samples were treated similarly, and a 0.5-ml aliquot was removed from each tube and added to the filter reservoir of Microcon centrifugal filter devices (Ultracel YM-30 with a molecular mass cutoff of 30 kDa). The devices were centrifuged at 1,000 × g for 10 min, and 100 μl of the filtrate was transferred to a 96-well plate and diluted 5-fold. Ten-microliter volumes of the samples were injected and analyzed with the LC-MS/MS system. All samples were analyzed in duplicate. Quantitation was based on the peak area ratio of the analyte over the internal standard, and all integrations were performed with peak areas by using Analyst version 1.4.1 (Applied Biosystems, Foster City, CA, USA). Plasma protein binding was calculated based on the following equation: Plasma Protein Binding (%)=(PeakAreaPlasma UltrafilrateSpiked−PeakAreaPlasmaFiltrate)/PeakAreaPlasma UltrafiltrateSpiked×100

in vivo = details: mouse, 30 mg/kg; for α-t1/2 % AUC / β-t1/2 % AUC: i.v.; for AUC(0-inf) / Cmax / MRT / Vd / clearance / half-life / AUC(0-t) / Tmax / bioavailability: in vivo
Description: Mouse pharmacokinetic studies were conducted by using female CD-1 mice for compounds 1, 11, and 12, while BALB/c mice were used for compound 13. Mouse body weights were 19 to 28 g, and on the morning of dosing, mice were split randomly into 3 dosing groups to receive the test article by either intravenous (i.v.) tail vein injection or oral (p.o.) gavage. After dosing, blood samples were collected via cardiac puncture at specific time points (n = 3 mice/time point) through 24 h (K2EDTA as an anticoagulant) and processed for plasma. Antibiotic concentrations in the plasma samples were analyzed by liquid chromatography-tandem mass spectrometry (LC-MS/MS). The LC-MS/MS analysis was conducted by using analyte/internal standard peak area methods. The internal standard was AN3365 ([21]), and the instrument used was an API4000 QTRAP instrument (AB Sciex). The limit of quantitation (LOQ) was 1 or 2 ng/ml. Pharmacokinetic analyses of the mean plasma concentration-time profiles were performed by using WinNonlin Pro version 5.2. A compartmental model was used for the data for i.v. dosing, and a noncompartmental model was used for the data for p.o. dosing. […] Compounds 1 and 13 were formulated in saline (0.9% [wt/vol] NaCl) at 7.5 mg/ml, and the pH was adjusted to >5 by the addition of NaOH. Compound 11 was formulated to 6.5 mg/ml in water-dimethylacetamide-ethanol (EtOH) (76:19:5), and the pH was adjusted to >5 by the addition of NaOH. Compound 12 was formulated to 7.5 mg/ml in PEG 300-propylene glycol (PG)-water (55:25:20), and the pH was adjusted to >5 by the addition of NaOH.

[2] = target: M. tuberculosis LeuRS editing domain (Mycobacterium tuberculosis, UniProt P9WFV1); assay: biochemical; assay type: binding
M. tuberculosis H37Rv [3] = assay type: in vivo, C57BL/6J mice; details: mouse, in vivo

Sequence of M. tuberculosis LeuRS (P9WFV1 whole entry): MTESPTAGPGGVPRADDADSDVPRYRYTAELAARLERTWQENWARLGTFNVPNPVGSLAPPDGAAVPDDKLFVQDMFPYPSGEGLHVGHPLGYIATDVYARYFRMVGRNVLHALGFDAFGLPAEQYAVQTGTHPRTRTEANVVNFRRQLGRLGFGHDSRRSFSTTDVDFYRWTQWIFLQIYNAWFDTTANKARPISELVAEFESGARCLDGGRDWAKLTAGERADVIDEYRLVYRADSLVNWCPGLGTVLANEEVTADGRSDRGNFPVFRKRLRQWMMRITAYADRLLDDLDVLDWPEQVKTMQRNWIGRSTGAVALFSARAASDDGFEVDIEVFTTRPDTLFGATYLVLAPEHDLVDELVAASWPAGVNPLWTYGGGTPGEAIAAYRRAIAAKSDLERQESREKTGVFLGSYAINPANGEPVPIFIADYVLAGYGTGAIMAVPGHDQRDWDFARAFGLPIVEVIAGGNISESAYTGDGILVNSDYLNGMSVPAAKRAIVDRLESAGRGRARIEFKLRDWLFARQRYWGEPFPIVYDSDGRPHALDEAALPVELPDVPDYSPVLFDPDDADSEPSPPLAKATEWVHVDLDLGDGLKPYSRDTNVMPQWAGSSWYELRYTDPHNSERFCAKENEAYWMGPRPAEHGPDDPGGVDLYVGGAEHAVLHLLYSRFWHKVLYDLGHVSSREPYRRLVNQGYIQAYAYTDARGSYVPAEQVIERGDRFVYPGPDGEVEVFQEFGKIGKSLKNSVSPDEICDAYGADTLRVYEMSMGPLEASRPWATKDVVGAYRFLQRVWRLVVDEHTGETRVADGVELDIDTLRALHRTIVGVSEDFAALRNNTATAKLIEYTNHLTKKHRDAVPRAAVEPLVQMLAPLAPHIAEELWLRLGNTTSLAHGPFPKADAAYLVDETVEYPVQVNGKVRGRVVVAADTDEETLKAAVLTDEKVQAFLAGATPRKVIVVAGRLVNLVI
Sequence of M. tuberculosis LeuRS editing domain (P9WFV1 309-513): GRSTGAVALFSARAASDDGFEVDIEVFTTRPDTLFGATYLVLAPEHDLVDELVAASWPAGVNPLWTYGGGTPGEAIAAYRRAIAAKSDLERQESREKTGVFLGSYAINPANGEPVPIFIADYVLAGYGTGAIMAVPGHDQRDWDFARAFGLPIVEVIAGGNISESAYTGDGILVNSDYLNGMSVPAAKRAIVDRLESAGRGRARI

With `C[C@H]1c2cccc(O)c2C(=O)C2=C(O)[C@]3(O)C(=O)C(C(N)=O)=C(O)[C@@H](N(C)C)[C@@H]3[C@@H](O)[C@@H]21` [Doxycycline, doxycycline] the EC50 (SDHA in HepG2 cells) was 109 ± 29 µM, the EC50 (COX1 in HepG2 cells) was 23.7 ± 6.4 µM and the EC50 (HepG2 cells) was 118 ± 35.5 µM.

`NCC1OB(O)c2ccccc21` (stereo not drawn) [AN3017] showed an IC50 (M. tuberculosis LeuRS; read-out: IC50 M.tb LeuRS) of 0.64 µM and an MIC (M. tuberculosis H37Rv [1]) of 1.8 µg/mL (≈ 11 µM).

For `CCOc1cc(Cl)cc2c1B(O)OC2CN` (stereo not drawn) [Compound 5], the EC50 (Vero cells) was 43 µM, the IC50 (M. tuberculosis LeuRS; read-out: IC50 M.tb LeuRS) was 0.38 µM and the “MIC M.tb H37Rv” value (M. tuberculosis H37Rv [1]) was no less than 1.1 µg/mL. The MIC (M. tuberculosis H37Rv [1]) was 1.2 µg/mL (≈ 4.97 µM).

With `CCOc1ccc(Cl)c2c1B(O)O[C@@H]2CN` [Compound 13] the fraction unbound (in vitro) was 0.77, the “α-t1/2 % AUC” value (in vivo) was 2 % AUC and the “β-t1/2 % AUC” value (in vivo) was 98 % AUC. For the same molecule, the AUC(0-inf) (in vivo; iv) was 51600 ng·h/mL, the Cmax (in vivo; iv) was 13600 ng/mL and the MRT (in vivo; iv) was 5.4 h. For the same molecule, the Vd (in vivo; iv) was 3.14 L/kg, the clearance (in vivo; iv) was 9.7 mL/min/kg and the half-life (in vivo; iv, α-t1/2, mouse) was 0.1 h. It also gave a half-life (in vivo; iv, β-t1/2, mouse) of 3.83 h, an AUC(0-t) (in vivo; po) of 47500 ng·h/mL and a Cmax (in vivo; po) of 6400 ng/mL. For the same molecule, the Tmax (in vivo; po) was 0.25 h, the bioavailability (in vivo; po) was 92% and the half-life (in vivo; po, Terminal t1/2, mouse) was 3.1 h. It also gave an EC50 (SDHA in HepG2 cells) of 20.5 ± 2.1 µM, an EC50 (COX1 in HepG2 cells) greater than 150 µM and an EC50 (HepG2 cells) of 80 ± 5.7 µM. For the same molecule, the Kd [2] was 0.075 µM, the No. of sites [2] was 1.19 and the ΔGap [2] was -9.7 kcal/mol. The ΔHap [2] was -4.2 kcal/mol, the “−TΔSap” value [2] was -5.5 kcal/mol and the IC50 (M. tuberculosis LeuRS) was 0.06 µM. It also gave an MIC (M. tuberculosis H37Rv [1]) of 0.02 µg/mL (≈ 0.0828 µM).

For `CCOc1ccc(F)c2c1B(O)O[C@@H]2CN` [Compound 12], the fraction unbound (in vitro) was 0.84, the “α-t1/2 % AUC” value (in vivo) was 7 % AUC and the “β-t1/2 % AUC” value (in vivo) was 93 % AUC. For the same molecule, the AUC(0-inf) (in vivo; iv) was 26800 ng·h/mL, the Cmax (in vivo; iv) was 13700 ng/mL and the MRT (in vivo; iv) was 3.4 h. For the same molecule, the Vd (in vivo; iv) was 3.81 L/kg, the clearance (in vivo; iv) was 18.6 mL/min/kg and the half-life (in vivo; iv, α-t1/2, mouse) was 0.11 h. The half-life (in vivo; iv, β-t1/2, mouse) was 2.53 h, the AUC(0-t) (in vivo; po) was 23800 ng·h/mL and the Cmax (in vivo; po) was 5000 ng/mL. For the same molecule, the Tmax (in vivo; po) was 1 h, the bioavailability (in vivo; po) was 89% and the half-life (in vivo; po, Terminal t1/2, mouse) was 2.7 h. The EC50 (SDHA in HepG2 cells) was 39.5 ± 9.2 µM, the EC50 (COX1 in HepG2 cells) was greater than 150 µM and the EC50 (HepG2 cells) was 23 ± 1.4 µM. It also gave an IC50 (M. tuberculosis LeuRS; read-out: IC50 M.tb LeuRS) of 0.08 µM and an MIC (M. tuberculosis H37Rv [1]) of 0.05 µg/mL (≈ 0.222 µM).

With `OB1OCc2ccccc21` [AN2679] the IC50 (M. tuberculosis LeuRS; read-out: IC50 M.tb LeuRS) was 21.3 µM and the MIC (M. tuberculosis H37Rv [1]) was 7.5 µg/mL (≈ 56 µM).

In the case of `CCOc1cccc2c1B(O)O[C@H]2CN` [Compound 3], the EC50 (Vero cells) is reported as greater than 50 µM and the IC50 (M. tuberculosis LeuRS; read-out: IC50 M.tb LeuRS) is reported as 21 µM.

In the case of `CC(=O)NC[C@H]1CN(c2ccc(N3CCOCC3)c(F)c2)C(=O)O1` [Linezolid, linezolid], the “reduction in CFU” value (M. tuberculosis H37Rv [3]) is reported as 2.6 log10, the EC50 (SDHA in HepG2 cells) is reported as greater than 150 µM and the EC50 (COX1 in HepG2 cells) is reported as 27.3 ± 10.8 µM. The EC50 (HepG2 cells) was greater than 150 µM and the “MIC values used in kill kinetics experiment” value (M. tuberculosis H37Rv [1]) was 0.6 µg/mL (≈ 1.78 µM).

`CCOc1ccc(CC)c2c1B(O)OC2CN` (stereo not drawn) [Compound 9] gave an EC50 (Vero cells) greater than 50 µM, an IC50 (M. tuberculosis LeuRS; read-out: IC50 M.tb LeuRS) of 0.31 µM and an MIC (M. tuberculosis H37Rv [1]) of 0.29 µg/mL (≈ 1.23 µM).
